From the supplement of paper PMC10307832

How the values were obtained:
Experiment in all cases: relative viability (nuclei count vs DMSO), 5 days (fraction); higher = more cells survive
Sulindac + Trametinib = compound: CC1=C(CC(=O)O)c2cc(F)ccc2/C1=C\c1ccc([S+](C)[O-])cc1 [Sulindac] + CC(=O)Nc1cccc(-n2c(=O)n(C3CC3)c(=O)c3c(Nc4ccc(I)cc4F)n(C)c(=O)c(C)c32)c1 [Trametinib] (partner 0.02 µM)
Summary of the method: (§1)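 Values are medians from duplicate plates. Each reflects relative viability, defined as the nuclei count of treated wells over that of vehicle wells. Lung cancer cell lines in 1536-well plates were pin-tool dosed one day after seeding with one drug alone or with a fixed anchor-drug dose plus five library-drug doses (not always all listed) in √10 steps, then fixed, stained and imaged at 4× after 5 days.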

Sulindac + Foretinib = compound: CC1=C(CC(=O)O)c2cc(F)ccc2/C1=C\c1ccc([S+](C)[O-])cc1 [Sulindac] + COc1cc2c(Oc3ccc(NC(=O)C4(C(=O)Nc5ccc(F)cc5)CC4)cc3F)ccnc2cc1OCCCN1CCOCC1 [Foretinib] (partner 0.25 µM)
Summary of the method: as §1

Sulindac + OSI-027 = compound: CC1=C(CC(=O)O)c2cc(F)ccc2/C1=C\c1ccc([S+](C)[O-])cc1 [Sulindac] + COc1cccc2cc(-c3nc([C@H]4CC[C@H](C(=O)O)CC4)n4ncnc(N)c34)[nH]c12 [OSI-027] (partner 0.5 µM)
Summary of the method: as §1

[1] = compound: O=c1[nH]cc(F)c(=O)[nH]1 [5-Fluorouracil] + C[C@]1(O)C[C@@H](c2nc(-c3ccc4ccc(-c5ccccc5)nc4c3)c3c(N)nccn32)C1 [Linsitinib] (partner 1 µM)
Summary of the method: as §1

Row | Cell Line | relative viability (Sulindac + Trametinib; first compound 0.08 µM) | relative viability (Sulindac + Trametinib; first compound 0.253 µM) | relative viability (Sulindac + Trametinib; first compound 0.8 µM) | relative viability (Sulindac + Trametinib; first compound 2.53 µM) | relative viability (Sulindac + Trametinib; first compound 8 µM) | relative viability (Sulindac + Foretinib; first compound 0.08 µM) | relative viability (Sulindac + Foretinib; first compound 0.8 µM) | relative viability (Sulindac + Foretinib; first compound 2.53 µM) | relative viability (Sulindac + Foretinib; first compound 8 µM) | relative viability (Sulindac + OSI-027; first compound 0.08 µM) | relative viability (Sulindac + OSI-027; first compound 0.8 µM) | relative viability (Sulindac + OSI-027; first compound 2.53 µM) | relative viability (Sulindac + OSI-027; first compound 8 µM) | relative viability ([1]; first compound 0.02 µM) | relative viability ([1]; first compound 0.2 µM) | relative viability ([1]; first compound 0.6325 µM) | relative viability ([1]; first compound 2 µM) | relative viability (Sulindac + Foretinib; first compound 0.253 µM) | relative viability (Sulindac + OSI-027; first compound 0.253 µM)
1 | NCI-H23 | 0.39 | 0.403 | 0.333 | 0.364 | 0.356 | 0.879 | 0.782 | 0.607 | 1.03 | 0.678 | 0.602 | 0.583 | 0.72 | 0.488 | 0.631 | 0.444 | 0.271 | – | –
2 | NCI-H322M | 0.474 | 0.506 | 0.48 | 0.5 | 0.603 | 0.992 | 0.882 | 0.954 | 1 | 0.6 | 0.442 | 0.557 | 0.602 | 0.898 | 0.747 | 0.652 | 0.64 | 0.996 | 0.534
3 | NCI-H358 | 0.132 | 0.132 | 0.128 | 0.114 | 0.14 | 0.85 | 0.572 | 0.621 | 0.826 | 0.941 | 0.657 | 0.727 | 0.891 | 0.704 | 0.883 | 0.867 | 0.483 | 0.763 | 0.891
4 | NCI-H441 | 0.423 | 0.579 | 0.331 | 0.492 | 0.494 | 0.992 | 0.86 | 1 | 1.24 | 0.627 | 0.416 | 0.679 | 0.759 | 0.51 | 0.519 | 0.397 | 0.301 | 1.15 | 0.597
5 | NCI-H460 | 0.178 | 0.195 | 0.114 | 0.366 | 0.132 | 1.3 | 0.667 | 1.02 | 1.08 | 1.5 | 0.566 | 0.688 | 0.77 | 0.872 | – | 0.163 | 0.042 | 1.12 | 0.811
6 | NCI-H520 | 0.787 | 0.707 | 0.642 | 0.691 | 0.699 | 0.876 | – | 0.678 | 1.34 | 0.266 | – | 0.232 | 0.307 | 0.892 | 1.07 | 0.751 | 0.356 | 0.822 | 0.266
7 | NCI-H596 | 0.892 | 0.827 | – | 0.981 | 0.875 | 0.796 | 0.928 | 0.97 | 0.892 | 0.798 | 0.76 | 0.77 | 0.772 | 1.02 | 0.834 | 0.689 | 0.567 | 1.05 | 0.761
8 | NCI-H647 | 0.577 | 0.591 | 0.358 | 0.472 | 0.61 | 1.25 | 1.05 | 1.25 | 1.28 | 0.63 | 0.487 | 0.677 | 0.683 | 1.05 | 1.32 | 1.16 | 0.701 | 1.2 | 0.947
9 | NCI-H650 | 1.03 | 1.03 | 0.955 | 1 | 1.07 | 0.926 | 0.997 | 0.994 | 1.19 | 0.506 | 0.523 | 0.545 | 0.566 | 0.866 | 0.691 | 0.511 | 0.394 | 1 | 0.523
10 | NCI-H661 | 0.635 | 0.608 | 0.487 | 0.669 | 0.654 | 1.12 | 0.999 | 1.1 | 1.03 | 0.735 | 0.622 | 0.711 | 0.797 | 0.466 | 0.731 | 0.654 | 0.522 | 1.05 | 0.838
11 | NCI-H727 | 0.362 | 0.414 | 0.378 | 0.417 | 0.35 | 0.789 | – | 0.898 | 0.826 | 0.561 | – | 0.537 | 1 | 0.272 | 0.443 | 0.31 | 0.332 | 0.93 | 0.538
12 | NCI-H838 | 0.608 | 0.559 | 0.456 | 0.527 | 0.584 | 1.05 | 1.03 | 1.06 | 1.22 | 0.382 | 0.367 | 0.358 | 0.388 | 1.01 | 1.06 | 0.578 | 0.312 | 1.19 | 0.424
13 | NCI-H1355 | 0.389 | 0.462 | 0.312 | 0.43 | 0.42 | 1.16 | – | 1.07 | 0.987 | 0.403 | – | 0.38 | 0.393 | 0.639 | 0.681 | 0.398 | 0.314 | 1.04 | 0.454
14 | NCI-H1395 | 0.966 | 0.999 | 0.939 | 0.949 | 1.17 | 0.845 | 0.949 | 0.906 | 1.1 | 0.668 | 0.675 | 0.58 | 0.77 | 0.884 | 1.19 | 1.03 | 1.25 | 1.02 | 0.72
